Tests used:
[1] = molecular target: kinase IRAK4 (Homo sapiens (Human), UniProt Q9NWZ3); assay: Inhibitory effects of compounds on kinase activity (fluorescence microfluidic mobility detection, competitive with ATP); assay type: biochemical; conditions: Table 2; IRAK4 6 nM, ATP 10 μM, substrate FAM-P8 3 μM
Experimental: Based on an experimental method of fluorescence microfluidic mobility detection, an IC50 value of competitive binding of kinase IRAK4 to ATP by the compounds was determined. The initial detection concentration of the compounds was 10 μM, diluted 4-fold gradient down to […], and tested in duplicate. Among them, commercial staurosporine was the standard control substance in this experiment.
1) IRAK4 kinase was dissolved in kinase buffer (50 mM HEPES pH 7.5, 10 mM MgCl2, 2 mM DTT and 0.01% Brij-35) to a final concentration of 6 nM.
2) The substrate peptide FAM-P8 and ATP were dissolved in the above kinase buffer. The final concentrations of the IRAK4 substrate peptide FAM-P8 and ATP were 3 μM and 10 μM respectively.
3) Dilution of the compounds: the compound was first diluted to 50 μM, and then diluted down with a 4-fold gradient of DMSO. The solution without the compound and kinase is used as a blank control, corresponding to the “minimum value” shown below; and the solution without the compound but with kinase, adenosine 5′-triphosphate disodium salt hydrate, DMSO and buffer is used as a positive control, corresponding to the “maximum value” shown below. 4) Kinase reaction and termination: 10 μL of kinase buffer was added to a 384-well plate containing 5 μL of the compound to be tested, and incubated at room temperature for 10 minutes. Another 10 μL of buffer containing the substrate peptide and adenosine 5′-triphosphate disodium salt hydrate was added to the 384-well plate. After incubation at 28° C. for one hour, 25 μL stop solution (100 mM HEPES pH 7.5, 50 mM EDTA, 0.2% Coating Reagent #3 and 0.015% Brij-35) was added to each well to terminate the reaction.
5) Data reading: the CaliperEZ Reader II instrument was used to read the conversion rate data. Conditions: downstream voltage −500V, upstream voltage −2250V, base pressure −0.5 PSI, and screening pressure −1.2 PSI.
6) Data calculation: the conversion rate data was copied from CaliperEZ Reader II and converted into inhibition rate data. The calculation formula is as follows:
[formula] • IC50 values were fitted using XLFit excel add-in version 5.4.0.8,
Y=Bottom+(Top−Bottom)/(1+(IC50/X)^HillSlope) Fitting formula: […]

[2] = molecular target: IRAK4 protein in THP-1 cells (Homo sapiens (Human), UniProt Q9NWZ3); assay: PROTAC-induced IRAK4 protein degradation in THP-1 cells (Western Blot); assay type: cell-based; conditions: concentration that degraded 50% of IRAK4, Western blotting, 24 hours after administration
Experimental: 2.1 Based on the experimental method of Western Blot, specific antibodies were used to stain the THP-1 cell samples treated by gel electrophoresis, and the degrading activity of the compounds on the IRAK4 protein in THP-1 cells was determined by analyzing the position and depth of staining. The concentrations of compound for the detection included 0 μM, 0.3 μM, 1 μM and 3 μM, and the cells were treated by the compound for 8 hours, 16 hours, 24 hours, and 48 hours. Glyceraldehyde-3-phosphate dehydrogenase (GAPDH) is an internal reference protein in this experiment.
Electrophoresis buffer: 50 mL MOPS SDS Running Buffer (20×) and 50 mL 20×TBS Tween-20 buffer were diluted with deionized water to 1 L as the electrophoresis buffer;
5% skim milk (w/v): 2.5 g skim milk was diluted with 50 mL 1×TBS Tween-20 buffer to prepare 5% skim milk;
5% BSA (w/v): 2.5 g BSA was diluted with 50 mL 1×TBS Tween-20 buffer to prepare 5% BSA;
Anti-IRAK4 antibody was diluted with 5% BSA at 1:1000 into a primary antibody working solution;
Goat Anti-Rabbit IgG H&L (HRP) was diluted with 5% BSA at 1:2000 into a second antibody working solution; and
Goat Anti-Mouse IgG H&L (HRP) was diluted with 5% BSA at 1:2000 into a second antibody working solution.
THP-1 cells were plated in a 6-well plate at a density of 1.5×10^6 cells per ml and incubated for 2 hours in a cell culture incubator under 37° C. and 5% CO2. The compound was diluted with DMSO to 0.6 mM, 0.2 mM and 0.06 mM respectively. 10 μL of compound solution was added to the corresponding wells, and continued to incubate in the incubator for 16 hours, 24 hours and 48 hours respectively. The compound-treated THP-1 cells in the well were collected, added with 120 μL of RIPA lysate containing protease inhibitor, Phosphatase Inhibitor Cocktail 2 and Phosphatase Inhibitor Cocktail 3, lysed on wet ice for 30 minutes, and then the cells lysate was centrifuged at a high speed and a low temperature for 5 minutes to collect the supernatant. The protein concentration of the cell sample was determined according to the instructions in the Pierce™ BCA Protein Assay Kit.
The concentration of the sample was adjusted to be consistent using lysis buffer and NuPAGE® LDS sample buffer containing 1M DTT. The samples were heated at 95° C. for 5 minutes and centrifuged at a low temperature and at a high speed. 20 μL of the prepared protein sample and 4 μL of PageRuler Prestained Protein Ladder were added into the gel well for running at 80V voltage for 0.5 hours, then the voltage was adjusted to 120V for further running for 1.5 hours. The gel was removed and the proteins in the gel were transferred to the IBlotTM 2 transfer membrane set at 20V. After successful transfer, bands at 65 kDa-40 kDa and 40 kDa-30 kDa were cut respectively. The membranes were blocked with 5% skim milk for 1 hour at room temperature. The membranes were washed three times with 1× concentration of TBST, then incubated with IRAK4 antibody working solution overnight at 4° C. The IRAK4 antibody working solution was discarded, and the membranes were washed three times with 1×concentration of TBST, and incubated with Goat Anti-Rabbit IgG H&L (HRP) working solution and Goat Anti-Mouse IgG H&L (HRP) working solution at room temperature. After 1 hour of incubation, the antibody working solution was discarded and the membranes were washed three times with 1× concentration of TBST. According to the instructions of the kit SuperSignal™ West Femto Maximum Sensitivity Substrate, the reagents in the kit were mixed in equal volume proportions to prepare a luminescent liquid mixture. The membranes were incubated for 1 minute, then removed for exposure.
The results of Western blotting 24 hours after administration of the compounds with a concentration of 1 μM were shown in Table 3: […]

kinase IRAK4, sequence (Q9NWZ3 whole entry): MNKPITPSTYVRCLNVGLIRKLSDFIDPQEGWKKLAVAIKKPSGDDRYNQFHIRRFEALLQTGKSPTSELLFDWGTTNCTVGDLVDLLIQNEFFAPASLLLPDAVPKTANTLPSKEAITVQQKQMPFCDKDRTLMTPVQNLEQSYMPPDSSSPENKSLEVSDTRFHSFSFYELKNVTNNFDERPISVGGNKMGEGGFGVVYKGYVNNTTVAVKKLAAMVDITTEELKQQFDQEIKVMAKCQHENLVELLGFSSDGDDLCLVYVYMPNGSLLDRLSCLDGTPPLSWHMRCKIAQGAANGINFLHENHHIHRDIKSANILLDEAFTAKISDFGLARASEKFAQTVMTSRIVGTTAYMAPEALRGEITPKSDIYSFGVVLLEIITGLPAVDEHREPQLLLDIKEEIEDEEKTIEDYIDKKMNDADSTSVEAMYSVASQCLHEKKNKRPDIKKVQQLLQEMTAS
IRAK4 protein in THP-1 cells, sequence (Q9NWZ3 whole entry): as above

## COc1cc2nn(C3CC4(CCN(C(=O)[C@H]5CC[C@H](C(=O)N[C@H](C(=O)N6C[C@H](O)C[C@H]6C(=O)N[C@@H](C)c6ccc(-c7scnc7C)cc6)C(C)(C)C)CC5)CC4)C3)cc2cc1NC(=O)c1cccc(C(F)(F)F)n1 [Compound I-29]
[1]
  IC50: 74 nM
[2]
  DC50: 16.3 nM

## COc1cc2nn(C3CC4(CCN(C(=O)[C@H]5CC[C@H](Oc6ccc7c(c6)C(=O)N(C6CCC(=O)NC6=O)C7=O)CC5)CC4)C3)cc2cc1NC(=O)c1cccc(C(F)(F)F)n1 (some centres unmarked) [Compound I-31]
[1]
  IC50: 34 nM
[2]
  DC50: 47.3 nM

## COc1cc2nn(C3CC4(CCN(c5cnn(C6CCN(c7ccc8c(c7)C(=O)N(C7CCC(=O)NC7=O)C8=O)CC6)c5)CC4)C3)cc2cc1NC(=O)c1cccc(C(F)(F)F)n1 (centres unmarked) [Compound I-32]
[1]
  IC50: 34.8 nM
[2]
  DC50: 33.8 nM

## COc1cc2nn(C3CC4(CCN(C(=O)C5(O)CCN(c6ccc7c(c6)C(=O)N(C6CCC(=O)NC6=O)C7=O)CC5)CC4)C3)cc2cc1NC(=O)c1cccc(C(F)(F)F)n1 (centres unmarked) [Compound I-33]
[1]
  IC50: 26.5 nM
[2]
  DC50: 8.05 nM

## COc1cc2nn(C3CC4(CCN(C(=O)C5(F)CCN(c6ccc7c(c6)C(=O)N(C6CCC(=O)NC6=O)C7=O)CC5)CC4)C3)cc2cc1NC(=O)c1cccc(C(F)(F)F)n1 (centres unmarked) [Compound I-34]
[1]
  IC50: 39.7 nM
[2]
  DC50: 22.7 nM

## COc1cc2nn(C3CC4(CCN(C(=O)C5CCN(c6ccc7c(c6)C(=O)N(C6CCC(=O)NC6=O)C7=O)CC5(F)F)CC4)C3)cc2cc1NC(=O)c1cccc(C(F)(F)F)n1 (centres unmarked) [Compound I-35]
[1]
  IC50: 33.4 nM
[2]
  DC50: 7.86 nM

## COc1cc2nn(C3CC4(CCN(C(=O)C5CCN(c6ccc7c(c6)C(=O)N(C6CCC(=O)NC6=O)C7=O)CC5)CC4)C3)cc2cc1NC(=O)c1coc(-c2ccnc(C)c2)n1 (centres unmarked) [Compound I-36]
[1]
  IC50: 12.4 nM
[2]
  DC50: 1.16 nM

## COc1cc2nn(C3CC4(CCN(C(=O)C5(C)CCN(c6ccc7c(c6)C(=O)N(C6CCC(=O)NC6=O)C7=O)CC5)CC4)C3)cc2cc1NC(=O)c1cccc(C(F)(F)F)n1 (centres unmarked) [Compound I-37]
[1]
  IC50: 29.9 nM
[2]
  DC50: 20.7 nM

## COc1cc2nn(C3CC4(CCN(C(=O)C5CCN(c6ccc7c(c6)C(=O)N(C6CCC(=O)NC6=O)C7=O)CC5)CC4)C3)cc2cc1NC(=O)c1cccc(C)n1 (centres unmarked) [Compound I-38]
[1]
  IC50: 14.1 nM
[2]
  DC50: 2.61 nM

## COc1cc2nn(C3CC4(CCN(C(=O)C5CCN(c6ccc7c(c6)C(=O)N(C6CCC(=O)NC6=O)C7=O)CC5)CC4)C3)cc2cc1NC(=O)c1cccc(N2CCOCC2)n1 (centres unmarked) [Compound I-41]
[1]
  IC50: 49.8 nM
[2]
  DC50: 4.42 nM

## COc1cc2nn(C3CC4(CCN(C(=O)C5CCN(c6ccc7c(c6)C(=O)N(C6CCC(=O)NC6=O)C7=O)CC5)CC4)C3)cc2cc1NC(=O)c1cccc(C(F)F)n1 (centres unmarked) [Compound I-42]
[1]
  IC50: 10.2 nM
[2]
  DC50: 1.2 nM

## COc1cc2nn(C3CC4(CCN(C(=O)C5CCN(c6ccc7c(c6)C(=O)N(c6ccc(=O)[nH]n6)C7=O)CC5)CC4)C3)cc2cc1NC(=O)c1cccc(C(F)(F)F)n1 [Compound I-43]
[1]
  IC50: 20.7 nM
[2]
  DC50: > 1000 nM

## COc1cc2nn(C3CC4(CCN(C(=O)C5CCN(c6ccc7c(c6)C(=O)N(C6CCC(=O)NC6=O)C7=O)CC5)CC4)C3)cc2cc1NC(=O)c1cnn2ccc(N3C[C@H]4C[C@@H]3CO4)nc12 (some centres unmarked) [Compound I-44]
[1]
  IC50: 17 nM
[2]
  DC50: 1.16 nM

## COc1cc2nn(C3CC4(CCN(C(=O)C5CCN(c6cc7c(cc6F)C(=O)N(C6CCC(=O)NC6=O)C7=O)CC5)CC4)C3)cc2cc1NC(=O)c1cccc(N2CCOCC2)n1 (centres unmarked) [Compound I-46]
[1]
  IC50: 17.7 nM
[2]
  DC50: 9.15 nM

## COc1cc2nn(C3CC4(CCN(C(=O)C5CCN(c6ccc7c(c6)C(=O)N(C6CCC(=O)NC6=O)C7=O)CC5)CC4)C3)cc2cc1NC(=O)c1ccn(C(F)F)n1 (centres unmarked) [Compound I-47]
[1]
  IC50: 9.17 nM
[2]
  DC50: 5.53 nM

## O=C1CCC(N2C(=O)c3ccc(N4CCC(C(=O)N5CCC6(CC5)CC(n5cc7cc(NC(=O)c8cccc(C(F)(F)F)n8)c(C(=O)O)cc7n5)C6)CC4)cc3C2=O)C(=O)N1 (centres unmarked) [Compound I-48]
[1]
  IC50: 19.2 nM
[2]
  DC50: > 1000 nM

## COc1cc2nn(C3CC4(CCN(C(=O)C5CCN(c6ccc7c(c6)C(=O)N(C6CCC(=O)NC6=O)C7=O)CC5)CC4)C3)cc2cc1NC(=O)c1cnn2ccc(N3CCN(C)CC3)nc12 (centres unmarked) [Compound I-49]
[1]
  IC50: 13.4 nM
[2]
  DC50: 9.79 nM

## COc1cc2nn(C3CC4(CCN(C(=O)C5(F)CCN(c6ccc7c(c6)C(=O)N(C6CCC(=O)NC6=O)C7=O)CC5)CC4)C3)cc2cc1NC(=O)c1cccc(N2CCOCC2)n1 (centres unmarked) [Compound I-50]
[1]
  IC50: 70.7 nM
[2]
  DC50: 21.6 nM

## COc1cc2nn(C3CC4(CCN(C5CCN(C(=O)c6ccc7c(c6)C(=O)N(C6CCC(=O)NC6=O)C7=O)CC5)CC4)C3)cc2cc1NC(=O)c1cccc(C(F)(F)F)n1 (centres unmarked) [Compound I-51]
[1]
  IC50: 5.33 nM
[2]
  DC50: 149 nM

## COc1cc2nn(C3CC4(CCN(C(=O)C5CCN(c6ccc7c(c6)C(=O)N(C6CCC(=O)NC6=O)C7=O)CC5)CC4)C3)cc2cc1NC(=O)c1cccc(N2CC3CC2CO3)n1 (centres unmarked) [Compound I-52]
[1]
  IC50: 13.3 nM
[2]
  DC50: 3.9 nM

## O=C1CCC(N2C(=O)c3ccc(N4CCC(C(=O)N5CCC6(CC5)CC(n5cc7cc(NC(=O)c8cccc(C(F)(F)F)n8)c(F)cc7n5)C6)CC4)cc3C2=O)C(=O)N1 (centres unmarked) [Compound I-53]
[1]
  IC50: 138 nM
[2]
  DC50: > 1000 nM

## COc1cc2nn(C3CC4(CCN(C(=O)C5CCN(c6ccc7c(c6)C(=O)N(C6CCC(=O)NC6=O)C7=O)CC5)CC4)C3)cc2cc1NC(=O)c1coc(N2CCOCC2)n1 (centres unmarked) [Compound I-54]
[1]
  IC50: 11.6 nM
[2]
  DC50: 6.2 nM
